Data as given in patent publication US20110144345A1, “SULFOXYIMINO-SUBSTITUTED BENZOYL DERIVATIVE AND HERBICIDE” (NIPPON SODA CO., LTD., priority 2008, published 2011).

Experiments:
Scirpus juncoides = assay: Paddy pot test, herbicidal effect on Scirpus juncoides; assay type: in vivo; design: scale not given here; conditions: Screening, 63 g/ha, examined after 3 weeks
Method: (§1) Plastic pots having an area of 100 cm^2 and a depth of 10 cm were filled with paddy soil which is puddled by adding water, and seeds of Echinochloa crus-galli and Scirpus juncoides were planted in the pots. After seeding, rice plants at the 2.5-leaf stage were transplanted and the pots were filled with water. The rice plants were grown in a greenhouse. […] The herbicidal effects and harmful effects on the rice plants were examined after 3 weeks. Herbicidal effects were examined according to the examination criteria described below and were represented by the herbicidal index. [table] […] [formula]

Echinochloa crus-galli = assay: Paddy pot test, herbicidal effect on Echinochloa crus-galli; assay type: in vivo; design: scale not given here; conditions: Screening, 63 g/ha, applied at 1.5-leaf stage, examined after 3 weeks
Method: as §1

rice plants = assay: Paddy pot test, harmful effects on transplanted rice plants; assay type: in vivo; design: scale not given here; conditions: Screening, 63 g/ha, applied at Echinochloa crus-galli 1.5-leaf stage, examined after 3 weeks
Method: as §1

Structure (SMILES) | Rice (harmful effects on the rice plants, index) (rice plants) | melting point [°C] | Scripus juncoides (herbicidal index) (Scirpus juncoides) | Echinochloa crus-galli (herbicidal index) (Echinochloa crus-galli)
COc1ccc(C(=O)c2cnn(C)c2[O-])c(Cl)c1N=S1(=O)CCCCC1.[Na+] [Example 115] | 0 | 224 to 226 | 8 | 10
C#CCOc1c(C(=O)c2ccc(OC)c(N=S3(=O)CCCCC3)c2Cl)cnn1C [Example 123] | 0 | 146 to 148 | 5 | 7
COc1ccc(C(=O)c2cnn(C)c2O)c(Cl)c1N=S1(=O)CCCC1 [Example 126] | 0 | 134 to 136 | 8 | 10
COc1ccc(C(=O)C2=C(O)CCCC2=O)c(Cl)c1N=S1(=O)CCCC1 [Example 127] | 0 | 153 to 155 | 8 | 8
CCn1ncc(C(=O)c2ccc(OC)c(N=S3(=O)CCCC3)c2Cl)c1O [Example 128] | 0 | 171 to 173 | 8 | 10
COc1c(N=S2(=O)CCCCC2)cccc1C(=O)c1cnn(C)c1O [Example 131] | 0 | 121 to 123 | 8 | 6
COc1ccc(C(=O)c2cnn(C)c2O)c(OC)c1N=S1(=O)CCOCC1 [Example 133] | 0 | 72 to 74 | 7 | 6
COc1c(C(=O)c2cnn(C)c2O)ccc(C)c1N=S1(=O)CCCCC1 [Example 135] | 0 | 85 to 87 | 7 | 5
COc1ccc(C(=O)c2cnn(C)c2OC(=O)c2ccc([N+](=O)[O-])cc2)c(Cl)c1N=S1(=O)CCCCC1 [Example 139] | 0 | 151 to 154 | 8 | 10
COc1ccc(C(=O)C2=C(O)CCCC2=O)c(Cl)c1N=S(C)(C)=O [Example 149] | 0 | 150 to 152 | 6 | 5
COc1ccc(C(=O)c2cnn(C)c2O)c(Cl)c1N=S(C)(C)=O [Example 150] | 0 | 164 to 166 | 8 | 5
COc1ccc(C(=O)c2cnn(C)c2OC(=O)SC)c(Cl)c1N=S1(=O)CCCCC1 [Example 154] | 0 | 163 to 165 | 8 | 10
COC(=O)c1ccc(C(=O)c2cnn(C)c2O)c(Cl)c1N=S(C)(C)=O [Example 161] | 0 | 115 to 125 | 8 | 9
O=C1CCCC(O)=C1C(=O)c1ccc(OC(F)F)c(N=S2(=O)CCCCC2)c1Cl [Example 179] | 1 | 125 to 127 | 7 | 7
Cn1ncc(C(=O)c2ccc(OC(F)F)c(N=S3(=O)CCCCC3)c2Cl)c1O [Example 181] | 0 | 158 to 161 | 9 | 10
CCn1ncc(C(=O)c2ccc(C#N)c(N=S3(=O)CCCCC3)c2Cl)c1O [Example 187] | 0 | 159 to 161 | 5 | 10

More lines, main results first:

Rice (harmful effects on the rice plants, index) (rice plants) | melting point [°C] | Structure (SMILES) | Scripus juncoides (herbicidal index) (Scirpus juncoides) | Echinochloa crus-galli (herbicidal index) (Echinochloa crus-galli)
0 | 166 to 168 | Cc1c(N=S2(=O)CCCCC2)cccc1C(=O)c1cnn(C)c1O [Example 191] | 7 | 6
0 | 149 to 151 | CSC(=O)Oc1c(C(=O)c2cccc(N=S3(=O)CCCCC3)c2C)cnn1C [Example 193] | 7 | 6
0 | 177 to 179 | Cn1ncc(C(=O)c2cccc(N=S3(=O)CCCCC3)c2Br)c1O [Example 196] | 8 | 6
0 | 151 to 153 | COc1ccc(C(=O)c2cnn(C)c2O)c(OC)c1N=S1(=O)CCCC1 [Example 198] | 7 | 5
0 | 102 to 104 | CC(C)c1ccc(C(=O)c2cnn(C)c2O)c(Cl)c1N=S1(=O)CCCCC1 [Example 208] | 7 | 8
0 | 167 to 169 | COc1ccc(C(=O)c2cnn(C)c2O)c(Cl)c1N=S(C)(=O)C(C)C (stereo not shown) [Example 210] | 9 | 6
0 | 84 to 86 | COc1ccc(C(=O)c2cnn(C)c2O)c(Cl)c1N=S1(=O)CCCC1C (stereo not shown) [Example 218] | 7 | 6
0 | 165 to 168 | CCS(=O)(CC)=Nc1c(OC)ccc(C(=O)c2cnn(C)c2O)c1Cl [Example 247] | 9 | 10
0 | 138 to 140 | COc1ccc(C(=O)c2c(C)nn(C)c2O)c(Cl)c1N=S1(=O)CCCCC1 [Example 250] | 8 | 7
